Read-outs that look alike come from different tables or passages of the source.
Experiments:
OVCAR-3 cells = test: OVCAR-3 cell proliferation (Cell Titer-Glo, 10 days); type: cell-based, human
Procedure: The inhibitory effect on the KIF18A target by the compounds of the present disclosure was evaluated by testing the inhibitory effect on proliferation of OVCAR-3 cells by the compounds of the present disclosure.
The following method was used to determine the effect of the compounds of the present disclosure on the proliferation of human ovarian cancer cells Ovcar-3 (HTB-161, ATCC). Cells were cultured in RPMI-1640 complete medium containing 20% fetal bovine serum, 0.01 mg/mL bovine insulin, 100 U penicillin, and 100 μg/mL streptomycin. The Promega kit Cell Titer-Glo (Cat. No. G7572) was used in this method for test.
For specific steps, reference was made to the kit instructions, and the procedure was outlined below: Test compounds were dissolved in DMSO to prepare a 10 mM stock solution, which was diluted at the predetermined test concentrations, and the test compounds at different concentrations were added to a 384-well cell test plate using ECHO. In the plate pre-added with the test compounds, 400 OVCAR-3 cells in the logarithmic growth phase were seeded per well, ensuring the final concentration of the test compounds in the reaction system ranged between 0.12 nM and 10 μM. The co-culture was maintained in a cell culture incubator for 10 days. Before testing, the cell culture plate was equilibrated for 10 minutes at room temperature, 25 μL of Cell Titer-Glo was added to each well, and the mixture was shaken and mixed well and let stand for 5 minutes. The luminescence values for samples in various wells were read using a microplate reader in Luminescence mode.
The percentage of inhibition of cell proliferation by the test compound at each concentration was calculated by comparing with the values of the control group (0.1% DMSO). The IC50 values of the compounds were obtained by concentration-inhibition rate nonlinear regression analysis of the test compounds using GraphPad Prism 9.

KIF18A = KIF18A (Homo sapiens (Human), UniProt Q8NI77); test: KIF18A ATPase activity under tubulin stimulation (ADP-Glo assay); type: biochemical; conditions: KIF18A 30 nM, ATP 150 μM, pig microtubules
Chain of KIF18A (Q8NI77 whole entry): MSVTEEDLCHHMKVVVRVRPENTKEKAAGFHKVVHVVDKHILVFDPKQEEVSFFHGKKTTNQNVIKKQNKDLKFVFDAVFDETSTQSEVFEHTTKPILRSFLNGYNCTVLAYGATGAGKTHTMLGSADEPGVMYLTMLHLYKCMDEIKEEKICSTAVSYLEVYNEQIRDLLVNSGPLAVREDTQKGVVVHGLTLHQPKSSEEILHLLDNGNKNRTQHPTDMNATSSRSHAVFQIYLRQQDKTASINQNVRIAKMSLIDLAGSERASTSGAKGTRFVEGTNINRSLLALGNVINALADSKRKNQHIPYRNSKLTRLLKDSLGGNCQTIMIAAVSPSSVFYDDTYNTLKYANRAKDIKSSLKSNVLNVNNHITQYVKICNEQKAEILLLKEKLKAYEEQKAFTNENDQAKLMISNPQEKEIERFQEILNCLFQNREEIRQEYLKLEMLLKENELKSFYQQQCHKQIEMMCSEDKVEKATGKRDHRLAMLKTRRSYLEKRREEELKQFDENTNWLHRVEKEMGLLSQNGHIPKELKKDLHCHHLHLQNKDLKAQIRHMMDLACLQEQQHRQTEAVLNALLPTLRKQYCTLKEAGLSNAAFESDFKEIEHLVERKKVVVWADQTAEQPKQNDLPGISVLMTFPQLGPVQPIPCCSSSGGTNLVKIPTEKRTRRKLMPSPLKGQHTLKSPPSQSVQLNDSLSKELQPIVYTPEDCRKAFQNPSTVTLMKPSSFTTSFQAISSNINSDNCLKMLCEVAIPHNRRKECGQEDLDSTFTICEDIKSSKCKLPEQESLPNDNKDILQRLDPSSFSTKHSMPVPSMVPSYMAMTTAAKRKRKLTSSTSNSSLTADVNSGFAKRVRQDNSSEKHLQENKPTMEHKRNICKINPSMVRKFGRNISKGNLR
Chain of KIF18A (P02550 whole entry partner): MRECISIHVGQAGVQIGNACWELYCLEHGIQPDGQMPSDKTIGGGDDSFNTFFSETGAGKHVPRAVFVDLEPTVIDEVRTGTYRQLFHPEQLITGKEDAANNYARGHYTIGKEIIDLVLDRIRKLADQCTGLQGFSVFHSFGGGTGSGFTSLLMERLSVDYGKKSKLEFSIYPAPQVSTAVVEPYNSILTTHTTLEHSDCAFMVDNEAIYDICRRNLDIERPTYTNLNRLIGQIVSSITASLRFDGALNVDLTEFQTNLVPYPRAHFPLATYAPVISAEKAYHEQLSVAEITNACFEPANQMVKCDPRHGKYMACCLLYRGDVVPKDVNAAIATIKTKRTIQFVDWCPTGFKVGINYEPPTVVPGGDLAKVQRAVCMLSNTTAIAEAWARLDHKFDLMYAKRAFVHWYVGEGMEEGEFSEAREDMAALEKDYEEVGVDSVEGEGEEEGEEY
Chain of KIF18A (P02554 whole entry partner): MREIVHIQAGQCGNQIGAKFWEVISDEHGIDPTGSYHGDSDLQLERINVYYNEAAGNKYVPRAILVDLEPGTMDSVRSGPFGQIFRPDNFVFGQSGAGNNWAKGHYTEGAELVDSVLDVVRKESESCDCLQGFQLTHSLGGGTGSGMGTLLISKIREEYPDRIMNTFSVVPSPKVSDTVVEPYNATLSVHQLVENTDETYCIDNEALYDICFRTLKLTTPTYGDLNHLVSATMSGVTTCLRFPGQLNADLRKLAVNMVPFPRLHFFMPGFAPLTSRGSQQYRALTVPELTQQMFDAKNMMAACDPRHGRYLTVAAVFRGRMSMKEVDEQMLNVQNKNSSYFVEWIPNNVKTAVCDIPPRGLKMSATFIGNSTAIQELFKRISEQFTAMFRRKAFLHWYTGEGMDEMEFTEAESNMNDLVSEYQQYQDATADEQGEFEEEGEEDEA

Row | SMILES | IC50 (OVCAR-3 cells; Homo sapiens, OVCAR-3, 240 h) | IC50 (KIF18A) | IC50 (OVCAR-3 cells)
1 | O=C(Nc1cc(F)cc2c1cc1n2CCOC1)c1ccc(NS(=O)(=O)CCO)cc1N1CCC2(CC1)CC2 [Example 366, N-(7-fluoro-3,4-dihydro-1H-[1,4]oxazino[4,3-a]indol-9-yl)-4-((2-hydroxyethyl)sulfonamido)-2-(6-azaspiro[2.5]oct-6-yl)benzamide] | ≤ 0.05 µM | ≤ 0.05 µM | 
2 | CCS(=O)(=O)Nc1ccc(C(=O)Nc2cccc3c2cc2n3CCCC2O)c(N2CCC3(CC2)CC3)c1 (stereo not drawn) [Example 373, 4-(ethylsulfonamido)-N-(9-hydroxy-6,7,8,9-tetrahydropyridino[1,2-a]indol-1-yl)-2-(6-azaspiro[2.5]oct-6-yl)benzamide] | ≤ 0.05 µM | ≤ 0.05 µM | 
3 | N#Cc1ccc(NC(=O)c2ccc(NS(=O)(=O)CCO)cc2N2CCC3(CC2)CC3)c2cc3n(c12)CCC(F)(F)C3O (stereo not drawn) [Example 438, N-(4-cyano-8,8-difluoro-9-hydroxy-6,7,8,9-tetrahydropyridino[1,2-a]indol-1-yl)-4-((2-hydroxyethyl)sulfonamido)-2-(6-azaspiro[2.5]oct-6-yl)benzamide] | ≤ 0.05 µM | 0.05 to 0.5 µM | 
4 | CC1Cn2c(nc3c(NC(=O)c4ccc(NS(=O)(=O)CCO)cc4N4CCC5(CC4)CC5)cccc32)C(C)O1 (stereo not drawn) [Example 444, 2-(6-azaspiro[2.5]oct-6-yl)-N-(1,3-dimethyl-3,4-dihydro-1H-benzo[4,5]imidazo[2,1-c][1,4]oxazin-9-yl)-4-{[(2-hydroxyethyl)sulfonamide]}benzamide] |  | ≤ 0.05 µM | ≤ 0.05 µM
5 | CC1Cn2c(nc3c(NC(=O)c4ccc(NS(=O)(=O)CCO)cc4N4CCC5(CC4)CC5)ccc(F)c32)C(C)O1 (stereo not drawn) [Example 445, 2-(6-azaspiro[2.5]oct-6-yl)-N-(6-fluoro-1,3-dimethyl-3,4-dihydro-1H-benzo[4,5]imidazo[2,1-c][1,4]oxazin-9-yl)-4-{[(2-hydroxyethyl)sulfonamide]}benzamide] |  | ≤ 0.05 µM | ≤ 0.05 µM
6 | COc1ccc(NC(=O)c2ccc(NS(=O)(=O)CCO)cc2N2CCC3(CC2)CC3)c2cc3n(c12)CC(C)OC3C (stereo not drawn) [Example 449] |  | 0.05 to 0.5 µM | ≤ 0.05 µM
7 | CC1(C)Cn2c(cc3c(NC(=O)c4ccc(NS(=O)(=O)CCO)nc4N4CCC5(CC4)CC5)cccc32)CO1 [Example 453, N-(3,3-dimethyl-3,4-dihydro-1H-[1,4]oxazino[4,3-a]indol-9-yl)-6-((2-hydroxyethyl)sulfonamido)-2-(6-azaspiro[2.5]octan-6-yl)nicotinamide] | 0.5 to 5 µM | 0.05 to 0.5 µM | 
8 | Cc1cc(NC(=O)c2ccc(NS(=O)(=O)CCO)cc2N2CCC(=C(F)F)CC2)c2cc3n(c2c1)CC(C)(C)OC3 [Example 467, 2-(4-(difluoromethylene)piperidin-1-yl)-4-((2-hydroxyethyl)sulfonamide)-N-(3,3,7-trimethyl-3,4-dihydro-1H-[1,4]oxazino[4,3-a]indol-9-yl)benzamide] |  | 0.05 to 0.5 µM | 0.05 to 0.5 µM
9 | COc1ccc(NC(=O)c2ccc(NS(=O)(=O)CCO)cc2N2CCC(=C(F)F)CC2)c2cc3n(c12)CCC(F)(F)C3 [Example 477, N-(8,8-difluoro-4-methoxy-6,7,8,9-tetrahydropyridino[1,2-a]indol-1-yl)-2-(4-(difluoromethylene)piperidin-1-yl)-4-((2-hydroxyethyl)sulfonamido)benzamide] | ≤ 0.05 µM | 0.05 to 0.5 µM | 
10 | COc1ccc(NC(=O)c2ccc(NS(=O)(=O)CCO)cc2N2CCC3(CC2)CC3)c2cc3n(c12)CCC(F)(F)C3OC (stereo not drawn) [Example 479, N-(8,8-difluoro-4,9-dimethoxy-6,7,8,9-tetrahydropyridino[1,2-a]indol-1-yl)-4-((2-hydroxyethyl)sulfonamido)-2-(6-azaspiro[2.5]oct-6-yl)benzamide] | 0.05 to 0.5 µM | 0.05 to 0.5 µM | 
11 | COc1ccc(NC(=O)c2ccc(NS(=O)(=O)CCO)cc2N2CCC3(CC2)CC3)c2nc3n(c12)CC(C)(C)OC3 [Example 488] |  | 0.05 to 0.5 µM | ≤ 0.05 µM
12 | COc1ccc(NC(=O)c2ccc(NS(=O)(=O)CCO)cc2N2CCC(=C(F)F)CC2)c2nc3n(c12)CC(C)(C)OC3 [Example 489] | ≤ 0.05 µM | 0.05 to 0.5 µM | 
13 | CC1(C)Cn2c(cc3c(NC(=O)c4ccc(NS(=O)(=O)CCO)cc4N4CCC5(CC4)CC5)ccc(F)c32)CO1 [Example 519, N-(6-fluoro-3,3-dimethyl-3,4-dihydro-1H-[1,4]oxazinyl[4,3-a]indol-9-yl)-4-((2-hydroxyethyl)sulfanilamido)-2-(6-azaspiro[2.5]oct-6-yl)benzamide] |  | 0.05 to 0.5 µM | 0.05 to 0.5 µM
14 | CC1(C)Cn2c(cc3c(NC(=O)c4ccc(NS(=O)(=O)CCO)cc4N4CCC5(CC4)CC5)ccc(Cl)c32)CO1 [Example 521, 2-(6-azaspiro[2.5]oct-6-yl)-N-(6-chloro-3,3-dimethyl-3,4-dihydro-1H-[1,4]oxazino[4,3-a]indol-9-yl)-4-{[(2-hydroxyethyl)sulfonamide]}benzamide] |  | 0.05 to 0.5 µM | 0.05 to 0.5 µM
15 | Cc1ccc(NC(=O)c2ccc(NS(=O)(=O)CCO)cc2N2CCC3(CC2)CC3)c2cc3n(c12)CC(C)(C)OC3 [Example 525] |  | 0.05 to 0.5 µM | ≤ 0.05 µM
16 | CCNC(=O)c1ccc(NC(=O)c2ccc(NS(=O)(=O)CCO)cc2N2CCC3(CC2)CC3)c2cc3n(c12)CC(C)(C)OC3 [Example 527] | ≤ 0.05 µM | 0.05 to 0.5 µM | 
17 | CCNC(=O)c1ccc(NC(=O)c2ccc(NS(=O)(=O)CCO)cc2N2CCC(=C(F)F)CC2)c2cc3n(c12)CC(C)(C)OC3 [Example 528] | ≤ 0.05 µM | 0.05 to 0.5 µM | 
18 | Cn1cnc(-c2ccc(NC(=O)c3ccc(NS(=O)(=O)CCO)cc3N3CCC4(CC3)CC4)c3cc4n(c23)CC(C)(C)OC4)c1 [Example 529] | ≤ 0.05 µM | 0.05 to 0.5 µM | 

Second part, led by results:

Row | IC50 (OVCAR-3 cells; Homo sapiens, OVCAR-3, 240 h) | IC50 (KIF18A) | SMILES | IC50 (OVCAR-3 cells)
19 | > 5 µM | 0.05 to 0.5 µM | O=C(Nc1cccc2c1cc1n2CCOC1=O)c1ccc(NS(=O)(=O)CCO)cc1N1CCC2(CC1)CC2 [Example 346, 4-((2-hydroxyethyl)sulfonamido)-N-(1-oxo-3,4-dihydro-1H-[1,4]oxazino[4,3-a]indol-9-yl)-2-(6-azaspiro[2.5]oct-6-yl)benzamide] | 
20 |  | ≤ 0.05 µM | O=C(Nc1ccc(NS(=O)(=O)CCO)cc1N1CCC2(CC1)CC2)c1cccc2c1cc1n2CCOC1 [Example 357] | 0.05 to 0.5 µM
21 | 0.05 to 0.5 µM | ≤ 0.05 µM | O=C(Nc1cc(F)cc2c1cc1n2CCOC1)c1ccc(NS(=O)(=O)CCO)cc1N1CCC(=C(F)F)CC1 [Example 367, 2-(4-(difluoromethylene)piperidin-1-yl)-N-(7-fluoro-3,4-dihydro-1H-[1,4]oxazino[4,3-a]indol-9-yl)-4-((2-hydroxyethyl)sulfonamido)benzamide] | 
22 | ≤ 0.05 µM | ≤ 0.05 µM | O=C(Nc1cc(F)cc2c1nc1n2CCOC1)c1ccc(NS(=O)(=O)CCO)cc1N1CCC2(CC1)CC2 [Example 368, N-(7-fluoro-3,4-dihydro-1H-benzo[4,5]imidazo[2,1-c][1,4]oxazin-9-yl)-4-((2-hydroxyethyl)sulfonamido)-2-(6-azaspiro[2.5]oct-6-yl)benzamide] | 
23 | 0.05 to 0.5 µM | ≤ 0.05 µM | O=C(Nc1cc(F)cc2c1nc1n2CCOC1)c1ccc(NS(=O)(=O)CCO)cc1N1CCC(=C(F)F)CC1 [Example 369, 2-(4-(difluoromethylene)piperidin-1-yl)-N-(7-fluoro-3,4-dihydro-1H-benzo[4,5]imidazo[2,1-c][1,4]oxazin-9-yl)-4-((2-hydroxyethyl)sulfonamido)benzamide] | 
24 |  | ≤ 0.05 µM | CCS(=O)(=O)Nc1ccc(C(=O)Nc2cccc3c2cc2n3CCC(F)(F)C2O)c(N2CCC(=C(F)F)CC2)c1 (stereo not drawn) [Example 381, N-(8,8-difluoro-9-hydroxy-6,7,8,9-tetrahydropyridino[1,2-a]indol-1-yl)-2-(4-(difluoromethylene)piperidin-1-yl)-4-ethyl sulfonamidobenzamide] | ≤ 0.05 µM
25 | ≤ 0.05 µM | ≤ 0.05 µM | COc1ccc(NC(=O)c2ccc(NS(=O)(=O)CCO)cc2N2CCC3(CC2)CC3)c2cc3n(c12)CCC(F)(F)C3O (stereo not drawn) [Example 482, N-(8,8-difluoro-9-hydroxy-4-methoxy-6,7,8,9-tetrahydropyridino[1,2-a]indol-1-yl)-4-((2-hydroxyethyl)sulfonamido)-2-(6-azaspiro[2.5]oct-6-yl)benzamide] | 
26 | 0.05 to 0.5 µM | 0.05 to 0.5 µM | CC1(C)Cn2c(cc3c(NC(=O)c4ccc(NS(=O)(=O)CCO)cc4N4CCC(=C(F)F)CC4)ccc(F)c32)CO1 [Example 520, 2-(4-(difluoromethylene)piperidin-1-yl)-N-(6-fluoro-3,3-dimethyl-3,4-dihydro-1H-[1,4]oxazino[4,3-a]indol-9-yl)-4-((2-hydroxyethyl)sulfonamido)benzamide] | 
27 | 0.05 to 0.5 µM | 0.05 to 0.5 µM | Cc1ccc(NC(=O)c2ccc(NS(=O)(=O)CCO)cc2N2CCC(=C(F)F)CC2)c2cc3n(c12)CC(C)(C)OC3 [Example 526] | 

From patent US20260070887A1 (Shenzhen Zhongge Biological Technology Co., Ltd., priority 2022, published 2026)
